Where “and” joins values, the source holds several entries; their conditions need not be identical. Equal entries are not always repeated.
Legend:
[1] = system: differentiated SH-SY-5Y cells; assay: Intracellular ROS by DCFD fluorescence in differentiated SH-SY-5Y cells; type: cell-based, human
Protocol: Cultured cells were used to test individual agents and formulations. In general, SH-SY-5Y human neuroblastoma cells were cultured in DMEM (Cellgro) containing 10% fetal bovine serum in 5% CO2.
For treatments with Abeta, differentiated cultures were transferred to medium without serum and treated for two hours with 20 μM Abeta25-35 (Sigma Chemical Co., St. Louis, Mo.). […] Louis, Mo.). In experiments calling for treatment of cell cultures with N-acetyl cysteine (NAC; NALC), cultures were treated with 10 mM NAC (Sigma Chemical Co., St. Louis, Mo.) after the culture was grown for two hours in serum-free medium.
Intracellular reactive oxygen species (ROS) were monitored as described in Ekinci et al., 1999 (J. Biol. Chem., 274:30322-30327). Briefly, cells were incubated for 30 minutes with dichloro-fluorescein diacetate (DCFD; acetoxymethyl ester; Molecular Probes, Inc., Eugene, Oreg.), which is used to detect intracellular peroxide levels. Incubation was followed by rinsing of cultures in serum-free medium and immediate capture of images using UV optics. Images were captured under epifluorescent and phase-contrast illumination using a DAGE CCL-72 cooled CCD camera via a Scion LG-3 frame grabber operated by NIH Image (see the Internet at rsb.info.nih.gov/nih-image). Images were then stored as PICT files on a Macintosh Power PC 7100AV for subsequent analysis. At least 100 cells in randomly-selected fields from duplicate cultures derived from multiple experiments were scored for fluorescent intensity using NIH Image analysis software. Representative background areas devoid of cells were similarly analyzed and subtracted from cell values to yield net densitometric values. All fields for each individual assay were illuminated, captured, and processed under identical settings. Corresponding phase-contrast images were obtained. Cell aggregates were excluded from the assays; only individual cells were quantified. Values were exported to Excel for statistical analyses using Student's t test.
For monitoring of intracellular peroxide concentrations as an index of ROS, cultures received 10 μl/ml DFCD (2′7′-dichlorofluorescein diacetate; Kodak) for 20 minutes. Cultures were then visualized under fluorescein UV optics (perikaryon; Ekinci and Shea, 1999, supra).

[2] = Snowdon et al., 2000; cited from earlier work
[3] = system: SH-SY-5Y human neuroblastoma cells; assay: PHF-1 immunoreactivity (phospho-tau) in differentiated SH-SY-5Y cells with or without folate; type: cell-based
Protocol: Cultured cells were used to test individual agents and formulations. […] For immunocytochemistry to detect paired helical filament-1 (PHF-1) staining (as an index of tau phosphorylation), cells were fixed for 15 minutes with 4% paraformaldehyde in 0.1 M phosphate buffer and immunostained by sequential reaction with a mouse monoclonal PHF-1 antibody that was raised against tau from paired helical filaments isolated from the brains of Alzheimer disease patients. Incubation with PHF-1 antibody was followed by rhodamine conjugated goat anti-mouse IgG and visualization using methods known in the art. […] Cortical neurons were prepared from 12 day embryonic C57/B16 day old mice using known methods. Both the SH-SY-5Y cultures and the cortical neurons were processed for PHF-1 (paired helical filament 1) immunofluorescence using known methods ([…] et al., 1999 supra). Control cells cultured in the continued presence of normal folate levels were also processed. Phospho-tau was also examined using immunoblot analysis. […] The homogenates were sedimented at 13,000×g for 15 minutes and the resulting supernatant was electrophoresed, blotted, and the blot stained for PHF-1 using known methods.

[4] = system: SH-SY-5Y cells; assay: HPLC analysis of glutathione and thiols in SH-SY-5Y cells; type: cell-based, human
Protocol: Glutathione levels were quantified in homogenates of SH-SY-5Y cells. Cultures were rinsed twice with Tris-buffered saline (TBS), scraped from the plate in a small volume of TBS and homogenized on ice. Medium was also utilized for analysis of HCY along with cellular lysates, since HCY is normally exported from cells. Homogenates (100 μl) were reduced by mixing with 50 μl of 100 μM N-acetylcysteine or with 30 μl of 30 μM cystamine (as an internal standard) and 10 μl of tri-carboxyethylphosphine (100 mg/ml in 0.05 M HCl). Samples were vortexed, incubated at room temperature for 30 minutes, then centrifuged at 10,000×g for 10 minutes. 80 μl of the resulting supernatant were combined with 160 μl of 2 M boric acid/4 mM EDTA (pH 10.5), followed by 80 μl of 1.0 mg/ml SBDF [7-fluorobenzo-2-oxa-1,3-diazole-4-sulfonate] in boric acid/EDTA buffer). Samples were mixed, incubated for 60 minutes at 60° C., equilibrated to reach temperature, and 50 μl of the sample was then injected into a Hewlett Packard model 1090 HPLC, which is used with a 1046A fluorescence detector and a Hewlett Packard 4.6×60 mm high-speed analytical column packed with 3 μM ODs (C18) Hypersil silica. The mobile phase consisted of methanol/0.2 M acetate buffer pH 4.0 (2/98 by volume). Glutathione concentrations were then determined by comparison of peak area ratios of glutathione to the internal standard N-acetylcysteine in the sample compared to peak areas obtained for a glutathione standard curve. Samples were derived from 3-4 normal and 3-4 ApoE−/− mice for each dietary condition, from ≧2 independent experiments (total n≧6 for each diet for both experiments).
NAC directly scavenges ROS and also provide a source of intracellular cysteine for synthesis of glutathione during conditions of oxidative stress. […] Differentiated SH-SY-5Y cells with and without NAC treatment were subjected to HPLC along with 50 μM each of multiple thiol standards (“Standards”) as indicated in FIGS. 18A to 18C.

[5] = folate deprivation for 24 hours

Nc1nc2ncc(CNc3ccc(C(=O)N[C@@H](CCC(=O)O)C(=O)O)cc3)nc2c(=O)[nH]1 [folate, folic acid]
Abeta-induced increase in ROS ([1]; 5×folate (20 mg/l), 20 μM Abeta two hours): prevented | ROS in otherwise untreated cells ([1]; 10×folate compared to 1-5×folate): marginal decrease in ROS | ROS Mean ± SEM ([1]; folate (control), two hours): 7.6 ± 0.3 | increase in ROS ([1]; folate deprivation, compared to cells cultured in the presence of folate (Example 6)): 64±5% | ROS Mean ± SEM ([1]; no folate, two hours): 10.5 ± 0.5 | ROS % increase vs. control ([1]; no folate, two hours, vs cultures receiving folate): 38±4% and 38% | ROS ([1]; single agent, control cells and cells exposed to Abeta, two hours): reduced ROS | concentration in spinal fluid versus plasma [2]: concentrated four-fold within spinal fluid over that observed within plasma | PHF-1 (phospho-tau) Mean ± SEM ([3]; +Folate 4 hr): 40.3 ± 3.9 | % increase in phospho-tau compared to control ([3]; +Folate 24 hr): −5.5% | PHF-1 (phospho-tau) Mean ± SEM ([3]; +Folate 24 hr): 38.1 ± 3.1 | PHF-1 levels after cultures received medium containing folate ([3]; after folate deprivation for 24 hours): returned to control levels within four hours | average increase in PHF-1 immunofluorescence ([3]; folate deficiency, two hours): 3.5 fold | average increase in phospho-tau [3, 5]: 29% | accumulation of phospho-tau after restoration of folate ([3]; following folate deprivation): reversed within two hours | total tau levels (monoclonal antibody 5E2) ([3]; two hour deprivation of folate): not altered | % increase in phospho-tau compared to control ([3]; −Folate 4 hr): 29% | PHF-1 (phospho-tau) Mean ± SEM ([3]; −Folate 4 hr): 52.0 ± 3.4 | % increase in phospho-tau compared to control ([3]; −Folate 24 hr): −1.5% | PHF-1 (phospho-tau) Mean ± SEM ([3]; −Folate 24 hr): 39.7 ± 2.6 | total glutathione levels ([4]; brief (two hour) folate deprivation): no significant change | depletion of total glutathione levels [4, 5]: approximately 45% | oxidized glutathione ([4]; in the presence of folate): 4% | oxidized glutathione ([4]; two hours of folate deprivation): 46%

From patent US8173618B2, “Formulations for reducing neuronal degeneration” (University of Massachusetts, priority 2003, dated 2012)
